Several values for one entry are separate records, joined by “and”; a condition that tells them apart may be missing. Equal entries are not always repeated.
What was measured:
[1] = tested on: human liver cancer cell HepG2; assay: In vitro activity assay, growth of HepG2 (thymidine incorporation); type: cell-based; conditions: 48 h
Source text: (§1) The anti-tumor activity and toxicity of the compounds according to the present invention can be assayed through standard operational procedures of pharmacological experiment. The experiments carried out herein can test the inhibitory effect of the compounds according to the present invention on the growth of human liver cancer cell HepG2, lung cancer cell NCI460, prostate cancer cell DU145, prostate cancer cell PC3, and human breast cancer cell MDA-MB-435. The operational procedure used is briefly described below by taking the inhibitory activity assay against human liver cancer cell HepG2 as an example.
Human liver cancer cell HepG2 grew in the follow medium:
Preparation of the growth medium: BRL minimum essential medium with Earle Salts (500 mL), with the addition of the following agents:
(§2) The operational procedure for the assay is as follows:
(§3) 1. Cells after being trypsinized were inoculated in 96-well plates at a concentration of 10^4 cells/well, and allowed to grow in a medium with a final volume of 200 μL. The 96-well plates after inoculation are allowed to stand for 24 hours at 37° C., in order to allow the cells to adhere to the surface of the wells.
(§4) 2. The medium was removed by carefully pipetting without disturbing the cell monolayer. 200 μL Fresh medium was added into each well. It is arranged to make it possible to collect samples from enough wells to run the experiments in triplicate.
(§5) 3. The compounds to be tested according to the present invention were dissolved into 10 μL phosphate buffered solution (PBS) and incubated for 48 h at 37° C.
(§6) 4. In the last 6 h of incubation, cells in each well of the 96-well plates were labeled by 1 microcurie T thymidine (New England Nuclear thymidine), by adding 10 μL PBS containing 1 microcurie T thymidine (which was added into the PBS on the day of collecting the samples for test). The 96-well plates were then returned to the incubator and incubated for the last 6 h.
(§7) 5. Without disturbing the cell monolayer, the radioactive medium was removed by pipetting. Then 50 μL of BRL 10×trypsin was added to each well, followed by incubation at 37° C. for 10 minutes or until the cell monolayer was detached from the bottom (or the wall) of each well. Samples were collected on glass-fiber diskettes using a Skatron 96-well cell harvester. Cells depositing on the glass-fiber diskettes were counted in a Wallac Betaplate counter.

[2] = tested on: lung cancer cell NCI460; assay: In vitro activity assay, growth of NCI460; type: cell-based; conditions: NCI-460, 48 h
Source text: as §1, §2, §3, §4, §5, §6, §7

[3] = tested on: prostate cancer cell DU145; assay: In vitro activity assay, growth of DU145; type: cell-based; conditions: Homo sapiens; DU-145; 48 h
Source text: as §1, §2, §3, §4, §5, §6, §7

[4] = tested on: prostate cancer cell PC3; assay: In vitro activity assay, growth of PC3; type: cell-based; conditions: 48 h
Source text: as §1, §2, §3, §4, §5, §6, §7

[5] = tested on: human breast cancer cell MDA-MB-435; assay: In vitro activity assay, growth of MDA-MB-435; type: cell-based; conditions: 48 h
Source text: as §1, §2, §3, §4, §5, §6, §7

[6] = tested on: human lung cancer cell NCI-H460; assay: In vivo inhibitory activity against NCI-H460 tumor in nude mice; conditions: everolimus 5 mg/kg, compound I-1 6.8 mg/kg, qw 4×
[7] = tested on: DU145; assay: In vivo tumor inhibitory efficacy against DU145 tumor in nude mice, intragastrical vs injection; conditions: for Mean Volume of Tumor: 3×/w, 4 w; for tumor inhibitory effect compared with intragastrical everolimus 5 mg/kg: compound I-1 tail vein injection, end of the test
Procedure: (§8) DU145 (the 3rd generation) tumors in the rapid proliferation stage inoculated in the axilla of nude mice were cut into tumor lumps with a size of 1 mm*1 mm*1 mm and then were inoculated subcutaneously to the right limb of nude mice using a trocar under a sterile condition. When the tumors grow to 150-200 mm^3, the mice were randomly divided into three groups and then administrated with the compounds for 4 weeks. The major diameter (a) and the minor diameter (b) of the tumors were measured 2 or 3 times a week. The tumor volume (TV) was calculated with the following equation: TV=½×a×b^2. Tumors were stripped and weighted at Day 28 and the tumor inhibition rate was calculated using the following equation: (tumor weight of control−tumor weight of experimental group)/tumor weight of control×100%.
(§9) The nude mice were divided into 3 groups with 4 mice per group when the tumors averagely grew to about 185-200 mm^3, depending on the growth regularity of the tumor and the dosage regimen.

[8] = tested on: human renal cell carcinoma OS-RC-2; assay: In vivo inhibitory activity against human renal cell carcinoma OS-RC-2 in nude mice; conditions: for Tumor Weight ± SD: end of experiment
Procedure: The tumor inhibition rate was calculated.

[9] = Body weight of DU145 tumor nude mice; conditions: 3×/w, 4 w;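 note: dosing started once xenografts reached 150-200 mm^3, with mice randomized into three groups, loss of body weight served as an indirect sign of drug toxicity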
Procedure: as §8, §9
G1: positive drug group: Everolimus (5 mg/kg, qw, 4 w, 3×/w); administration route: intragastrical administration;

[10] = Day 0, G2 compound I-1 3.4 mg/kg tail vein injection
[11] = Day 0, G3 compound I-1 1.7 mg/kg tail vein injection
[12] = Day 3, G2 compound I-1 3.4 mg/kg tail vein injection
[13] = Day 3, G3 compound I-1 1.7 mg/kg tail vein injection
[14] = Day 7, G2 compound I-1 3.4 mg/kg tail vein injection
[15] = Day 7, G3 compound I-1 1.7 mg/kg tail vein injection
[16] = Day 10, G2 compound I-1 3.4 mg/kg tail vein injection
[17] = G4 compound I-1 8.12 mg/kg ig 3×/qw
[18] = G5 compound I-1 2.0 mg/kg iv 3×/qw
[19] = G6 compound I-1 8.12 mg/kg iv 3×/qw
[20] = G7 compound I-1 32.7 mg/kg iv 1×/qw

CO[C@H]1C[C@@H]2CC[C@@H](C)[C@@](O)(O2)C(=O)C(=O)N2CCCC[C@H]2C(=O)OC([C@H](C)C[C@@H]2CC[C@@H](OCCOC(=O)CSC[C@H](NC(=O)CC[C@H](N)C(=O)O)C(=O)NCC(=O)O)[C@H](OC)C2)CC(=O)[C@H](C)/C=C(\C)[C@@H](O)[C@@H](OC)C(=O)[C@H](C)C[C@@H](C)\C=C/C=C/C=C/1C (stereo partly shown) [Compound I-1]
IC50 [1]: 11.127 ± 0.005 µM | IC50 [2]: 27.204 ± 0.007 µM | IC50 [3]: 56.215 ± 0.003 µM | IC50 [4]: 25.978 ± 0.008 µM | IC50 [5]: 55.345 ± 0.005 µM | Mean Volume of Tumor ([6]; Day 0): 195.1545 mm^3 | Mean Volume of Tumor ([6]; Day 3): 232.4297 mm^3 | Mean Volume of Tumor ([6]; Day 7): 273.2138 mm^3 | Mean Volume of Tumor ([6]; Day 10): 360.0897 mm^3 | Mean Volume of Tumor ([6]; Day 14): 506.8288 mm^3 | Mean Volume of Tumor ([6]; Day 17): 612.8810 mm^3 | Mean Volume of Tumor ([6]; Day 21): 934.2806 mm^3 | Mean Volume of Tumor ([6]; Day 24): 1089.1761 mm^3 | Tumor Inhibition Rate ([6]; Day 28, by tumor weight): 68% and 68.29% | Mean Volume of Tumor ([6]; Day 28): 1354.8457 mm^3 | Tumor Weight ± SD ([6]; Day 28): 0.8463 ± 0.1582 g | Mean Volume of Tumor [7, 10]: 189.84 mm^3 | Mean Volume of Tumor [7, 11]: 187.29 mm^3 | Mean Volume of Tumor [7, 12]: 203.79 mm^3 | Mean Volume of Tumor [7, 13]: 235.34 mm^3 | Mean Volume of Tumor [7, 14]: 223.91 mm^3 | Mean Volume of Tumor [7, 15]: 250.90 mm^3 | Mean Volume of Tumor [7, 16]: 245.45 mm^3 | Mean Volume of Tumor ([7]; Day 10, G3 compound I-1 1.7 mg/kg tail vein injection): 269.25 mm^3 | Mean Volume of Tumor ([7]; Day 14, G2 compound I-1 3.4 mg/kg tail vein injection): 255.59 mm^3 | Mean Volume of Tumor ([7]; Day 14, G3 compound I-1 1.7 mg/kg tail vein injection): 281.22 mm^3 | Mean Volume of Tumor ([7]; Day 17, G2 compound I-1 3.4 mg/kg tail vein injection): 261.55 mm^3 | Mean Volume of Tumor ([7]; Day 17, G3 compound I-1 1.7 mg/kg tail vein injection): 280.18 mm^3 | Mean Volume of Tumor ([7]; Day 21, G2 compound I-1 3.4 mg/kg tail vein injection): 257.96 mm^3 | Mean Volume of Tumor ([7]; Day 21, G3 compound I-1 1.7 mg/kg tail vein injection): 300.52 mm^3 | Mean Volume of Tumor ([7]; Day 24, G2 compound I-1 3.4 mg/kg tail vein injection): 241.11 mm^3 | Mean Volume of Tumor ([7]; Day 24, G3 compound I-1 1.7 mg/kg tail vein injection): 288.39 mm^3 | Mean Volume of Tumor ([7]; Day 28, G2 compound I-1 3.4 mg/kg tail vein injection): 267.54 mm^3 | Mean Volume of Tumor ([7]; Day 28, G3 compound I-1 1.7 mg/kg tail vein injection): 323.75 mm^3 | tumor inhibitory effect compared with intragastrical everolimus 5 mg/kg ([7]; dosage equivalent to a quarter of that of everolimus (1.7 mg/kg)): substantially the same tumor inhibitory effect as that of intragastrical administration of everolimus | tumor inhibitory effect compared with intragastrical everolimus 5 mg/kg ([7]; dosage equivalent to half of that of everolimus (3.4 mg/kg)): significantly superior to that of intragastric administration of everolimus | Tumor Inhibition Rate [8, 17]: 55.6% | Tumor Inhibition Rate [8, 18]: 57.1% | Tumor Inhibition Rate [8, 19]: 59.9% | Tumor Inhibition Rate [8, 20]: 60.6% | tumor inhibitory effect (FIG. 7) ([8]; compound I-1 injection, 2.0 mg/Kg 3 times a week or 32.7 mg/Kg once a week): a good tumor inhibitory effect | Tumor Weight ± SD [8, 17]: 0.3002 ± 0.1108 g | Tumor Weight ± SD [8, 18]: 0.2905 ± 0.0936 g | Tumor Weight ± SD [8, 19]: 0.2710 ± 0.1695 g | Tumor Weight ± SD [8, 20]: 0.2669 ± 0.1023 g | Body Weight, mean value [9, 10]: 25.30 g | Body Weight, mean value [9, 11]: 26.86 g | Body Weight, mean value [9, 12]: 25.92 g | Decrease rate (body weight) [9, 12]: −2.45% | Body Weight, mean value [9, 13]: 27.32 g | Decrease rate (body weight) [9, 13]: −1.70% | Decrease in body weight ([9]; Day 3 vs Day 0, G2 compound I-1 3.4 mg/kg tail vein injection): -0.62 g | Decrease in body weight ([9]; Day 3 vs Day 0, G3 compound I-1 1.7 mg/kg tail vein injection): -0.46 g | Body Weight, mean value [9, 14]: 26.13 g | Decrease rate (body weight) [9, 14]: −3.29% | Body Weight, mean value [9, 15]: 27.17 g | Decrease rate (body weight) [9, 15]: −1.16% | Decrease in body weight ([9]; Day 7 vs Day 0, G2 compound I-1 3.4 mg/kg tail vein injection): -0.83 g | Decrease in body weight ([9]; Day 7 vs Day 0, G3 compound I-1 1.7 mg/kg tail vein injection): -0.31 g | Body Weight, mean value [9, 16]: 26.15 g | Decrease rate (body weight) [9, 16]: −3.37%

Reference: patent US10442835B2, “Water-soluble rapamycin derivatives” (Zhejiang Hisun Pharmaceutical Co., Ltd., priority 2016, dated 2019)
